We go through eleven compounds from paper PMC11357160, “Gouregine, an α-Gem-Dimethyltetradehydrocularine Alkaloid, and Other Aporphinoid Alkaloids from the Bark of Guatteria olivacea (Annonaceae) and Their In Vitro Cytotoxic Activities” (Molecules, 2024).

Where “and” joins values, the source holds several entries; their conditions need not be identical. Equal values may be shown once. Where a name gives a salt, the structure may show the parent alone. A value given as a limit tells only on which side of the number the result lay.

The test system of data set [1] is MRC-5 (human lung fibroblast). The data set is described as follows: Alamar blue cytotoxicity assay, 72 h, noncancerous MRC-5. It counts as cell-based. The note with it: MRC5, MRC-5 noncancerous cells, 72 h incubation. On the procedure:
(§1) The in vitro cytotoxic activities of the isolated compounds 1–9 were evaluated against the cancer cell lines HepG2 (human hepatocellular carcinoma), KG-1a (human myeloid leukemia), and HCT116 (human colon carcinoma), and the noncancerous cell line MRC-5 (human lung fibroblast) via the Alamar blue assay after 72 h of incubation.
(§2) The HepG2 (human hepatocellular carcinoma), KG-1a (human myeloid leukemia), HCT116 (human colon carcinoma), and MRC-5 (human lung fibroblast) cell lines were obtained from the American Type Culture Collection (ATCC, Manassas, VA, USA) and were cultured as recommended by the American Type Culture Collection (ATCC) animal culture guide. All the cell lines were tested for mycoplasma via a mycoplasma stain kit (Sigma-Aldrich) to validate the use of cells that were free from contamination.
(§3) For the cytotoxicity assay, cell viability was quantified via the Alamar blue method, as previously described. For all the experiments, the cells were plated in 96-well plates. The chemical constituents evaluated varied in purity between 90% and 99.8%, which was determined on the basis of the relative integrals of the signals of the constituents in relation to the signals of the impurities contained. Most of the constituents had purities greater than 95%, except for constituents 4 and 5, which had purities of approximately 90%. The chemical constituents were dissolved in dimethyl sulfoxide (DMSO, Vetec Química Fina Ltda., Duque de Caxias, RJ, Brazil), added to each well, and incubated for 72 h. […] At the end of the treatment, 20 µL of a stock solution (0.312 mg/mL) of resazurin (Sigma-Aldrich Co.) was added to each well. The absorbances at 570 nm and 600 nm were measured via a SpectraMax 190 Microplate Reader (Molecular Devices, Sunnyvale, CA, USA). The half-inhibitory concentration (IC50) was obtained via nonlinear regression with 95% confidence intervals (CIs 95%) via the software GraphPad Prism 8 (Intuitive Software for Science; San Diego, CA, USA).

The test system of data set [2] is HCT116 (human colon carcinoma). The data set is described as follows: Alamar blue cytotoxicity assay, 72 h, HCT116. In kind it is cell-based. The note with it: for IC50: Homo sapiens, HCT-116, HCT116, Alamar blue, 72 h incubation; for Selectivity index (SI): SI = IC50 [noncancerous cells MRC-5]/IC50 [HCT116]. Here is the method:
as §1, §2, §3

In data set [3] the test system is HepG2 (human hepatocellular carcinoma). The data set is described as follows: Alamar blue cytotoxicity assay, 72 h, HepG2. The note with it: for IC50: Homo sapiens, HepG2, Alamar blue, 72 h incubation. It counts as cell-based. On the procedure:
as §1, §2, §3
A general note: Alamar Blue is a resazurin reagent that responds to reducing activity.

Details of data set [4]: method as in PMID 25065531, PMID 33290909, PMID 15540220, PMID 12951096, PMID 35597316. The settings on record: cited from earlier work.
A further data set deals with cancer cells. Details: method as in PMID 25065531, PMID 33290909, PMID 15540220, PMID 12951096, PMID 35597316. The note with it: cited from earlier work.
Another data set has as its system HL-60 leukemia cells. Details: method as in ref 47 Kim et al. The note with it: HL-60 cells, via p38 MAPK pathway; ref 47 Kim et al.; cited from earlier work.
For data set [5], the system named is KG-1a (human myeloid leukemia). The data set is described as follows: Alamar blue cytotoxicity assay, 72 h, KG-1a. It counts as cell-based. The note with it: 72 h incubation. On the procedure:
as §2
as §3, with “Most of the constituents had purities greater than 95%, except for constituents 4 and 5, which had purities of approximately 90%.” left out, “The half-inhibitory concentration (IC50) was obtained via nonlinear regression with 95% confidence intervals (CIs 95%) via the software GraphPad Prism 8 (Intuitive Software for Science; San Diego, CA, USA).” left out

In data set [6] the test system is human colon cancer cell lines and cancer stem cells (Wnt/β-catenin). Details: method as in PMID 37656375. The settings on record: through the inhibition of Wnt/β-catenin; cited from earlier work.
Data set [7] deals with Akt activation in anaplastic human thyroid cancer cells. Details: method as in PMID 38139812. The note with it: cited from earlier work.
For a further data set, the system named is human cancer cells. Details: method as in ref 41 = [41]; 41. Osorio D.E.J. Montoya P.G.L. Muñoz D.K. Arango A.G.J. Actividad antiplasmodial de alcaloides aporfínicos de Rollinia pittieri Y Pseudomalmea boyacana (Annonaceae) Vitae 2006 13 49 54. The note with it: cited from earlier work.
Details of data set [8]: method as in ref 41 = [41]; 41. Osorio D.E.J. Montoya P.G.L. Muñoz D.K. Arango A.G.J. Actividad antiplasmodial de alcaloides aporfínicos de Rollinia pittieri Y Pseudomalmea boyacana (Annonaceae) Vitae 2006 13 49 54. The note with it: cited from earlier work.
For data set [9], the system named is CAOV-3 ovarian cancer cells. Details: method as in PMID 25792804. The note with it: CAOV-3 cells, mitochondrial pathway, activation of caspase-3 and caspase-9; cited from earlier work.

In general, IC50 refers to the concentration needed to halve the response being measured. A low value points to inhibition by little substance. As for `COc1c2c3c(c(OC)c1OC)-c1ccc(O)cc1C(C)(C)C3=NCC2` [9-hydroxyiguattescine (4), 9-hydroxyiguattescine], the IC50 in data set [1] is > 25 µg/mL and > 70.7 µM; in [2], > 25 µg/mL and > 70.7 µM; in [3] it was > 25 µg/mL and > 70.7 µM.

Regarding `C=C[C@@]1(C)CC=C2C(CCC3[C@](C)(C(=O)O)CCC[C@@]23C)C1` (stereo partly drawn) [Acanthoic acid (7), acanthoic acid], in data set [4], the anti-inflammatory activity entry is given as “anti-inflammatory activity”. In addition, the IC50 in [1] was > 25 µg/mL and > 82.7 µM; in data set [2], 21.2 µg/mL and 70.2 µM; in data set [3] it was 14.6 µg/mL and 48.4 µM. Further, the “cytotoxicity to cancer cells” value with cancer cells is “low cytotoxicity”. Further, the apoptotic cell death entry in the data set on HL-60 leukemia cells is “causing apoptotic cell death”.

As to `COc1c(O)c2c3c(c1OC)CCN=C3C(C)(C)c1cc(O)ccc1-2` [Dihydromelosmine (5), dihydromelosmine], the IC50 in data set [1] is > 25 µg/mL and > 73.7 µM; in [2], > 25 µg/mL and > 73.7 µM; in [3], > 25 µg/mL and > 73.7 µM.

For the compound `COc1cccc2c1C(=O)c1c(O)c3c(c(O)c1C2=O)C[C@@](O)(C(=O)CO)C[C@@H]3O[C@H]1C[C@H](N)[C@H](O)[C@H](C)O1` [Doxorubicin, doxorubicin hydrochloride, reference compound], the IC50 was 1.42 µg/mL and 2.61 µM in data set [1]; 0.2 µg/mL and 360 nM in data set [2]; 0.04 µg/mL and 70 nM in [3]; 0.22 µg/mL and 400 nM in data set [5]. The results for the “Selectivity index (SI)” value in [2] and in [3] (SI = IC50 [noncancerous cells MRC-5]/IC50 [HepG2]) were 7.10 and 35.50, respectively.

As to `COc1c(O)c2c3c(nccc3c1OC)C(C)(C)c1cc(O)ccc1O2` [Gouregine (9), gouregine], the IC50 in data set [1] was > 25 µg/mL and > 70.7 µM; in data set [3], > 25 µg/mL and > 70.7 µM; in data set [5], > 25 µg/mL and > 70.7 µM.

Consider `COc1c2c3c(c(OC)c1OC)-c1ccc(O)cc1C(C)(O)C3=NCC2` (stereo not drawn) [Guattouregidine (8), guattouregidine], for which the half-inhibitory concentration (IC50) in data set [1] is > 25 µg/mL and > 73.2 µM; in data set [2], > 25 µg/mL and > 73.2 µM; in data set [3], > 25 µg/mL and > 73.2 µM.

Consider `COc1c(O)c2c3c(c1OC)CCN[C@@H]3Cc1ccccc1-2` [Isopiline (1), isopiline], for which the concentration for half-maximal inhibition (IC50) in data set [1] is > 25 µg/mL and > 84.1 µM; in data set [2] it was > 25 µg/mL and > 84.1 µM.

Regarding `COc1cc2ccnc3c2c(c1OC)-c1ccccc1C3=O` [Lysicamine (6), lysicamine], the “effect on colon cancer cell lines and cancer stem cells” value in [6] was “suppress human colon cancer cell lines and cancer stem cells”. Besides, the “effect on Akt activation” value in [7] is listed as “inhibit Akt activation”. In data set [1], the IC50 is 17.2 µg/mL and 59.2 µM. In addition, in data set [2], the IC50 is 6.64 µg/mL and 22.8 µM; the “Selectivity index (SI)” value stood at 2.60.

For `COc1c(O)c2c3c(nccc3c1OC)C(C)(C)c1cc(O)ccc1-2` [Melosmine (3), melosmine], the IC50 in [1] was 23.7 µg/mL and 70.3 µM. Besides, in data set [2], the IC50 is 16.8 µg/mL and 49.7 µM; the “Selectivity index (SI)” value was 1.41. Besides, in the data set with human cancer cells, the “cytotoxicity to human cancer cells” value is listed as “low cytotoxicity”. Besides, in [8], the antimalarial activity entry was “antimalarial agent”.

With `COc1c2c3c(c(OC)c1OC)-c1ccccc1CC3NCC2` (stereo not drawn) [O-Methylisopiline (2), O-methylisopiline], the IC50 was > 25 µg/mL and > 80.3 µM in data set [1]; > 25 µg/mL and > 80.3 µM in data set [2].

`O=C1c2ccccc2-c2c3c(cc4ccnc1c24)OCO3` [liriodenine]: the apoptosis entry in data set [9] was “caused apoptosis”.
